Reference: patent publication US20260325661A1, “ANTIBODY-CONJUGATED IMMUNO-ACTIVATING SMALL MOLECULE COMPOUND, AND USE” (SHENZHEN CONJUGENIX PHARMACEUTICAL TECHNOLOGY CO., LTD, priority 2023, published 2026)

Tested on: MC38-hPD-L1 cells
Experiment: Tumor inhibition assay in mice bearing MC38-hPD-L1 colon cancer
Assay type: in vivo, mouse
Settings: PD-L1 antibody 3 mg/kg, intraperitoneal, Day 8 and Day 12 after inoculation
Experimental: MC38-hPD-L1 cells (a humanized MC38 colon cancer cell line expressing human PD-L1 protein, Shanghai Model Organisms Center, Inc.) in the logarithmic phase were collected by digestion and centrifugation, and washed with PBS twice before counting, and the cell concentration was adjusted to 2.3×10^5 cells/mL. The mice were 6-week-old SPF-grade humanized C57BL/6 mice. The right back of the mice was shaved completely with a shaver, and 100 μL of the cell suspension was aspirated with a syringe and injected subcutaneously into the back of the mice after removing bubbles. When the tumor diameter reached 4-5 mm, administration was started.
Assessment of therapeutic effect on tumor-bearing mice and antitumor effect of the compounds: tumor-bearing mice (BALB/c) were randomly divided into control group, Atezolizumab antibody group (PD-L1 antibody group), and PD-L1-KX conjugate group (Atezolizumab-conjugated compound KX) (5 mice per group). […] The tumor was measured with a vernier caliper and the survival of the mice was recorded every three days at the beginning of administration and after administration. The tumor volume was calculated by the following method: 0.5×a×b^2, wherein a is the long-axis diameter and b is the short-axis diameter. […]

Substance: Atezolizumab: PD-L1 antibody purchased from MedChemExpress (Atezolizumab, CAS number: 1380723-44-3)
- tumor volume inhibition rate (Atezolizumab as control): 67%
